According to PMC4740378, “Export of malaria proteins requires co-translational processing of the PEXEL motif independent of phosphatidylinositol-3-phosphate binding” (Nature Communications, 2016):

Molecular target: T1, p40PX (GST-p40PX, aa 1-148) (Homo sapiens, UniProt Q15080)
T1 construct: gene NCF4; PX domain, residues 1-148, N-terminal GST fusion (pGEX; glutathione-purified, detected with anti-GST), E. coli
T1 sequence (Q15080 1-148): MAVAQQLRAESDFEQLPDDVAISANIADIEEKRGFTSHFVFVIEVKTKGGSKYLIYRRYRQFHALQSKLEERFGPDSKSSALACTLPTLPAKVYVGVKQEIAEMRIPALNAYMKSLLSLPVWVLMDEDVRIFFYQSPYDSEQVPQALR
Experiment: SPR, Biacore […], L1 chip with liposomes
Type: binding
Settings: PC:PE:PI(3)P 75:20:5 liposomes, PC/PE control subtracted; 150 mM NaCl, 50 mM HEPES pH 7.5, 25 °C; own-purified protein

Kd: 195 nM
Structure (SMILES): CCCCCCCCCCCCCCCC(=O)OC[C@H](COP(=O)(O)O[C@@H]1[C@H](O)[C@H](OP(=O)(O)O)[C@@H](O)[C@H](O)[C@H]1O)OC(=O)CCCCCCCCCCCCCCC [PI(3)P-diC16, D-myo-phosphatidylinositol 3-phosphate di-C16]
